Some results are limits rather than exact numbers.

The target in this test is T1, human MRGPRX2 (Homo sapiens, UniProt Q96LB1).
T1 construct: expressed in transfected cells; host or cells: CHO cells, stably transfected (G418 and Hygromycin B selection)
T1 sequence (Q96LB1 1-330): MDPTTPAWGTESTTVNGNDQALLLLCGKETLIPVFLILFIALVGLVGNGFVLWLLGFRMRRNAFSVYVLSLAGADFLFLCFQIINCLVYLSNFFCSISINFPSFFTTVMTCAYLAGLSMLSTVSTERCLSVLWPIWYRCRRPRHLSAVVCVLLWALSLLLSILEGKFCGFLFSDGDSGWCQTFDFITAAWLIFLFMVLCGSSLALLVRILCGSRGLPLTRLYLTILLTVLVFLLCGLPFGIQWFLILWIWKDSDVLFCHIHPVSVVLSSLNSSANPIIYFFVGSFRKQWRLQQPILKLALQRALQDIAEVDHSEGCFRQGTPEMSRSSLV
Nature of the test: MRGPRX2 activity: IP-One Gq HTRF assay in CHO cells, antagonism versus 0.3 uM Cortistatin-14. The class given is cell-based. The following applies: versus 0.3 uM Cortistatin-14 agonist, CHO cells expressing human MRGPRX2, read-out: MRGPRX2 Antagonist Activity. In outline: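 CHO cells stably expressing human MRGPRX2 were treated with a 10-point compound curve (30 uM top, 1:3) plus 0.3 μM Cortistatin-14 in LiCl-containing Tris buffer, pH 8. Incubation was 1 h at 37 °C then 1 h at room temperature; IP-1 was detected by HTRF and IC50 came from the HTRF ratio.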
For `CC(c1c(F)ccc2c1NC(NCc1cccc(F)c1)=NS2(=O)=O)C1CCCCC1` (stereo not drawn) [Compound 22-5, 5-(1-cyclohexylethyl)-6-fluoro-3-((3-fluorobenzyl)amino)-4H-benzo[e][1,2,4]thiadiazine 1,1-dioxide], the IC50 was less than 100 nM.
With `COc1cccc(C(C)c2c(F)ccc3c2NC(NCc2cccc(F)c2)=NS3(=O)=O)n1` (stereo not drawn) [Compound 22-6, 6-fluoro-3-((3-fluorobenzyl)amino)-5-(1-(6-methoxypyridin-2-yl)ethyl)-4H-benzo[e][1,2,4]thiadiazine 1,1-dioxide] the figure was less than 100 nM; with `COc1ccc(C(C)c2c(F)ccc3c2NC(NCc2cccc(F)c2)=NS3(=O)=O)c(F)c1` (stereo not drawn) [Compound 22-7, 6-fluoro-5-(1-(2-fluoro-4-methoxyphenyl)ethyl)-3-((3-fluorobenzyl)amino)-4H-benzo[e][1,2,4]thiadiazine 1,1-dioxide], less than 100 nM; with `CC(c1ccc2ccccc2c1)c1c(F)ccc2c1NC(NCc1cccc(F)c1)=NS2(=O)=O` (stereo not drawn) [Compound 22-8, 6-fluoro-3-((3-fluorobenzyl)amino)-5-(1-(naphthalen-2-yl)ethyl)-4H-benzo[e][1,2,4]thiadiazine 1,1-dioxide], 100 to 500 nM.
`CC(c1ccc2c(c1)CCCC2)c1c(F)ccc2c1NC(NCc1cccc(F)c1)=NS2(=O)=O` (stereo not drawn) [Compound 22-9, 6-fluoro-3-((3-fluorobenzyl)amino)-5-(1-(5,6,7,8-tetrahydronaphthalen-2-yl)ethyl)-4H-benzo[e][1,2,4]thiadiazine 1,1-dioxide]: the IC50 fell in the range of 100 to 500 nM.
In the case of `Cc1ccc(C(C)c2c(F)ccc3c2NC(NCc2cccc(F)c2)=NS3(=O)=O)o1` (stereo not drawn) [Compound 22-10, 6-fluoro-3-((3-fluorobenzyl)amino)-5-(1-(5-methylfuran-2-yl)ethyl)-4H-benzo[e][1,2,4]thiadiazine 1,1-dioxide], the IC50 was less than 100 nM.
For the molecule `CC(c1nccs1)c1c(F)ccc2c1NC(NCc1cccc(F)c1)=NS2(=O)=O` (stereo not drawn) [Compound 22-11, 6-fluoro-3-((3-fluorobenzyl)amino)-5-(1-(thiazol-2-yl)ethyl)-4H-benzo[e][1,2,4]thiadiazine 1,1-dioxide], the IC50 is less than 100 nM.
For `Cc1cccc(C(C)c2c(F)ccc3c2NC(NCc2cccc(F)c2)=NS3(=O)=O)c1` (stereo not drawn) [Compound 22-12, 6-fluoro-3-((3-fluorobenzyl)amino)-5-(1-(m-tolyl)ethyl)-4H-benzo[e][1,2,4]thiadiazine 1,1-dioxide], the IC50 is less than 100 nM.
With `CC(c1ccc(N(C)C)cc1)c1c(F)ccc2c1NC(NCc1cccc(F)c1)=NS2(=O)=O` (stereo not drawn) [Compound 22-13, 5-(1-(4-(dimethylamino)phenyl)ethyl)-6-fluoro-3-((3-fluorobenzyl)amino)-4H-benzo[e][1,2,4]thiadiazine 1,1-dioxide] the figure was 100 to 500 nM; with `CC(c1cccc(OC(F)(F)F)c1)c1c(F)ccc2c1NC(NCc1cccc(F)c1)=NS2(=O)=O` (stereo not drawn) [Compound 22-14, 6-fluoro-3-((3-fluorobenzyl)amino)-5-(1-(3-(trifluoromethoxy)phenyl)ethyl)-4H-benzo[e][1,2,4]thiadiazine 1,1-dioxide], 100 to 500 nM; with `CC(c1ccc(Oc2ccccc2)cc1)c1c(F)ccc2c1NC(NCc1cccc(F)c1)=NS2(=O)=O` (stereo not drawn) [Compound 22-15, 6-fluoro-3-((3-fluorobenzyl)amino)-5-(1-(4-phenoxyphenyl)ethyl)-4H-benzo[e][1,2,4]thiadiazine 1,1-dioxide], 501 to 1000 nM.
The value for `CC(c1ccc(N2CCOCC2)cc1)c1c(F)ccc2c1NC(NCc1cccc(F)c1)=NS2(=O)=O` (stereo not drawn) [Compound 22-16, 6-fluoro-3-((3-fluorobenzyl)amino)-5-(1-(4-morpholinophenyl)ethyl)-4H-benzo[e][1,2,4]thiadiazine 1,1-dioxide] was 1000 to 2500 nM; that for `CC(Cc1ccc(F)cc1)c1c(F)ccc2c1NC(NCc1cccc(F)c1)=NS2(=O)=O` (stereo not drawn) [Compound 22-17, 6-fluoro-3-((3-fluorobenzyl)amino)-5-(1-(4-fluorophenyl)propan-2-yl)-4H-benzo[e][1,2,4]thiadiazine 1,1-dioxide] was less than 100 nM.
For `CC(c1c(F)ccc2c1NC(NCc1cccc(F)c1)=NS2(=O)=O)c1c[nH]c2ccccc12` (stereo not drawn) [Compound 22-18, 5-(1-(1H-indol-3-yl)ethyl)-6-fluoro-3-((3-fluorobenzyl)amino)-4H-benzo[e][1,2,4]thiadiazine 1,1-dioxide], the IC50 was 100 to 500 nM.
For `Cc1nn(C)cc1C(C)c1c(F)ccc2c1NC(NCc1cccc(F)c1)=NS2(=O)=O` (stereo not drawn) [Compound 22-19, 5-(1-(1,3-dimethyl-1H-pyrazol-4-yl)ethyl)-6-fluoro-3-((3-fluorobenzyl)amino)-4H-benzo[e][1,2,4]thiadiazine 1,1-dioxide], the IC50 was less than 100 nM.
For the molecule `CC(c1ccc(S(C)(=O)=O)cc1)c1c(F)ccc2c1NC(NCc1cccc(F)c1)=NS2(=O)=O` (stereo not drawn) [Compound 22-20, 6-fluoro-3-((3-fluorobenzyl)amino)-5-(1-(4-(methylsulfonyl)phenyl)ethyl)-4H-benzo[e][1,2,4]thiadiazine 1,1-dioxide], the IC50 is 100 to 500 nM.
With `Cc1cc(C(C)c2c(F)ccc3c2NC(NCc2cccc(F)c2)=NS3(=O)=O)ccn1` (stereo not drawn) [Compound 22-21, 6-fluoro-3-((3-fluorobenzyl)amino)-5-(1-(2-methylpyridin-4-yl)ethyl)-4H-benzo[e][1,2,4]thiadiazine 1,1-dioxide] the figure was less than 100 nM; with `Cc1ccc(C(C)c2c(F)ccc3c2NC(NCc2cccc(F)c2)=NS3(=O)=O)cc1` (stereo not drawn) [Compound 22-22, 6-fluoro-3-((3-fluorobenzyl)amino)-5-(1-(p-tolyl)ethyl)-4H-benzo[e][1,2,4]thiadiazine 1,1-dioxide], 100 to 500 nM; with `CC(c1cccc(N(C)C)c1)c1c(F)ccc2c1NC(NCc1cccc(F)c1)=NS2(=O)=O` (stereo not drawn) [Compound 22-23, 5-(1-(3-(dimethylamino)phenyl)ethyl)-6-fluoro-3-((3-fluorobenzyl)amino)-4H-benzo[e][1,2,4]thiadiazine 1,1-dioxide], 100 to 500 nM.
Take `Cc1ccc(C(C)c2c(F)ccc3c2NC(NCc2cccc(F)c2)=NS3(=O)=O)cn1` (stereo not drawn) [Compound 22-24, 6-fluoro-3-((3-fluorobenzyl)amino)-5-(1-(6-methylpyridin-3-yl)ethyl)-4H-benzo[e][1,2,4]thiadiazine 1,1-dioxide]: the IC50 is less than 100 nM.
In the case of `CC(c1ccc(F)cc1F)c1c(F)ccc2c1NC(NCc1cccc(F)c1)=NS2(=O)=O` (stereo not drawn) [Compound 22-25, 5-(1-(2,4-difluorophenyl)ethyl)-6-fluoro-3-((3-fluorobenzyl)amino)-4H-benzo[e][1,2,4]thiadiazine 1,1-dioxide], the IC50 is less than 100 nM.
Consider `COc1ccccc1C(C)c1c(F)ccc2c1NC(NCc1cccc(F)c1)=NS2(=O)=O` (stereo not drawn) [Compound 22-26, 6-fluoro-3-((3-fluorobenzyl)amino)-5-(1-(2-methoxyphenyl)ethyl)-4H-benzo[e][1,2,4]thiadiazine 1,1-dioxide], for which the IC50 is less than 100 nM.
As for `CC(c1ccc(F)c(C#N)c1)c1c(F)ccc2c1NC(NCc1cccc(F)c1)=NS2(=O)=O` (stereo not drawn) [Compound 22-27, 2-fluoro-5-(1-(6-fluoro-3-((3-fluorobenzyl)amino)-1,1-dioxido-4H-benzo[e][1,2,4]thiadiazin-5-yl)ethyl)benzonitrile], the IC50 is less than 100 nM.
As for `[2H]c1ccc2c(c1[C@H](C)c1ccccc1F)NC(NCc1ncccc1F)=NS2(=O)=O` [Compound 23-1, (S)-5-(1-(2-fluorophenyl)ethyl)-3-(((3-fluoropyridin-2-yl)methyl)amino)-4H-benzo[e][1,2,4]thiadiazine 1,1-dioxide-6-d], the IC50 is less than 100 nM.
Turning to `C[C@H](c1ccccc1F)c1c(F)ccc2c1NC(NCc1ccccc1F)=NS2(=O)=O` [Compound 24-1, (R)-6-fluoro-3-((2-fluorobenzyl)amino)-5-(1-(2-fluorophenyl)ethyl)-4H-benzo[e][1,2,4]thiadiazine 1,1-dioxide], the IC50 was less than 100 nM.
For the molecule `C[C@H](c1ccccc1F)c1c(F)ccc2c1NC(NCc1ccc(F)cc1F)=NS2(=O)=O` [Compound 24-2, (R)-3-((2,4-difluorobenzyl)amino)-6-fluoro-5-(1-(2-fluorophenyl)ethyl)-4H-benzo[e][1,2,4]thiadiazine 1,1-dioxide], the IC50 is less than 100 nM.
For the molecule `C[C@H](c1ccccc1F)c1c(F)ccc2c1NC(NCc1ccc3c(cnn3C)c1)=NS2(=O)=O` [Compound 24-3, (R)-6-fluoro-5-(1-(2-fluorophenyl)ethyl)-3-(((1-methyl-1H-indazol-5-yl)methyl)amino)-4H-benzo[e][1,2,4]thiadiazine 1,1-dioxide], the IC50 is less than 100 nM.

Source of the values: patent US20250170141A1, “MRGPRX2 MODULATORS AND RELATED METHODS OF TREATMENT” (Escient Pharmaceuticals, Inc., priority 2023, published 2025).
